Results: PMC10121968, “Fosgonimeton, a Novel Positive Modulator of the HGF/MET System, Promotes Neurotrophic and Procognitive Effects in Models of Dementia” (Neurotherapeutics, 2022)
Non-standard residues stand in square brackets, D forms with d. Residues, ends and D or L forms follow the SMILES beside them. *: point of attachment. Hexanoyl = CCCCCC(=O)*; Ahx = NCCCCCC(=O)O

Experiments:
[1] = tested on: rat scopolamine amnesia model; assay: Scopolamine Morris water maze study; format: in vivo; settings: 1 mg/kg SC
Protocol: Animals were maintained in accordance with the National Institute of Health Guide for the Care and Use of Laboratory Animals. Rats (14-week-old male Sprague Dawley) from Simonsen laboratories (Gilroy, CA) were used in the scopolamine Morris water maze study. This study was performed at Washington State University and procedures were approved by the Washington State University Institutional Animal Care and Use Committee.
Animals were anesthetized with ketamine hydrochloride plus xylazine (70 mg/kg and 7 mg/kg intraperitoneally, respectively). An intracerebroventricular (ICV) guide cannula (PE-60; Clay Adams, Parsippany, NY) was stereotaxically positioned (model 900; David Kopf Instruments, Tujunga, CA) in the right hemisphere of the brain 1.0 mm posterior and 1.5 mm lateral to the bregma. The guide cannula measured 1.5 cm in length with a heat bulge at 2.5 mm from the beveled tip to control insertion depth. Once in position, the cannula was secured to the skull with screws and dental cement. Animals were housed individually and hand-gentled for 6 days of postsurgical recovery. Histologic verification of cannula placement was accomplished by ICV injection of 4 μL cresyl violet after completion of behavioral testing. Animals for which cannulas were improperly placed were removed from the study.
The Morris water maze consisted of a 183-cm diameter, 64-cm deep tank with a clear circular platform (16-cm diameter) placed 30 cm from the maze wall and submerged 1 cm below the surface of the 26.7 °C water. The maze was virtually divided into 4 equal quadrants with the platform centered in 1 quadrant. Eight visual cues were randomly placed on the maze wall and these cues remained consistent throughout the trials.
Animals received either fosgo-AM (1 mg/kg in DMSO) or volume-matched vehicle (DMSO) by subcutaneous (SC) injection 45 min before testing, followed by ICV injection of scopolamine hydrobromide (105 nmol in 4 μL artificial cerebrospinal fluid [aCSF] over a duration of 40 s) 20 min before testing. […]
Probe trials were conducted on day 9 to determine learning persistence. […] The percentage of trial time spent within the platform region, the number of times that the animal crossed into the platform region, and the average distance from the center of the platform region were recorded. The swimming patterns of the rats were recorded using video tracking software (MediaRecorder and EthoVision software, Noldus, VA, USA).
The daily escape latency (defined as the mean latency to find the platform each day) was calculated for each animal. […] Data collected during the probe trials were assessed for normality (Shapiro–Wilk) and homoscedasticity (Brown-Forsythe) and subsequently analyzed using one-way ANOVA with Bonferroni post hoc tests compared with scopolamine + vehicle controls. […]

[2] = tested on: MDCK cells; assay: MDCK cell scatter behavior assay; format: cell-based, canine; settings: HGF 10 ng/mL + fosgo-AM 10 pM, 100 pM and 1 nM, 24 h, vs HGF alone
Protocol: Madin-Darby canine kidney (MDCK, ATCC CCL-34) cells were grown at 37 °C, 5% CO2 in Eagle’s Minimum Essential Medium (EMEM) + 10% FBS in T-75 flasks until 80% confluent. Cells were then plated at 1400 cells/well in black-walled, clear-bottom 96-well plates and grown at 37 °C under 5% CO2 for 24 h. Growth media were replaced by serum-free media for 2 h before treatment. Treatments containing HGF and fosgo-AM were made in serum-free media and applied in quintuplicates for 24 h at 37 °C under 5% CO2. Cells were then fixed in chilled 100% EtOH at 4 °C for 20 min and then stained with wheat germ agglutinin conjugated to CF488 (WGA488, Biotium, 29,022–1, Fremont, California) at […] in phosphate-buffered saline (PBS) for 30 min at RT to visualize whole-cell surfaces. Cultures were then imaged with an iCys instrument (iCyte, Thor Labs, Newton, New Jersey) and analyzed with the ImageJ (National Institutes of Health) particle count feature. Scattering behavior was quantified by normalizing particle counts against total stained area. […] Data were assessed for normality (Shapiro–Wilk) and homoscedasticity (Brown-Forsythe). The statistical difference from HGF alone was determined by one-way ANOVA with Dunnett’s multiple comparison post-test with an alpha value of 0.05 (Prism, GraphPad).

[3] = probe trial day 9, vs scopolamine + vehicle

In the case of `CCCCCC(=O)N[C@@H](Cc1ccc(O)cc1)C(=O)N[C@H](C(=O)NCCCCCC(N)=O)[C@@H](C)CC` [fosgo-AM] (Hexanoyl-Tyr-Ile-[Ahx]-NH2), the escape latency ([1]; 8-day acquisition, scopolamine ICV) was “reduced escape latency over time”, the “frequency of entering the platform zone” value [1, 3] was “significantly improved” and the “mean distance from the center of the platform” value [1, 3] was “significantly improved”. The “percentage of time spent in the platform zone” value [1, 3] was “significantly improved” and the cell scattering behavior [2] was “significant cell scattering”.
